Legend:
[1] = tested on: velvetleaf (Abutilon theophrasti); test: Example 20, Procedure II: Herbicide No. 1 + EPTC or ERADICANE EXTRA with Antidote Nos. 5 and 15; format: in vivo
Protocol: (§1) Containers were filled and compacted with a fumigated silt loam top soil to a depth of about 1.3 cm from the top of the container. A first container was designated as an untreated control, a second container was designated as a herbicide control, and a third container was designated as a herbicide + antidote test container. Each of the containers was seeded with a crop species. A measured amount of herbicide dispersed or dissolved in acetone was applied to a measured quantity of soil. To this same quantity of soil treated with herbicide, there was added a measured amount of antidote dispersed or dissolved in acetone. The quantity of soil treated with the herbicide and antidote was thoroughly mixed to incorporate the herbicide and antidote in the soil uniformly. The seed bed in the third container of soil was covered with the soil treated with the herbicide and antidote and the container was leveled. For each test series, the seed beds of the first and second containers were likewise covered by soil layers. the cover layer of the first container was not treated with herbicide or antidote.
(§2) The containers were then placed on a bench in a greenhouse and sub-irrigated as required for the duration of the test. […] Plant response is measured in terms of percent injury. Antidote efficacy is indicated as the difference in plant injury by the herbicide(s) without the antidote and with the antidote.
(§3) This procedure is the same as Procedure I, but modified in the manner that after incorporation of the chemicals (herbicide and antidote) the containers with the covered seedbed were treated with an initial overhead irrigation equivalent to 0.6 cm rainfall, then subsequently sub-irrigated as required on greenhouse benches.
In the series of greenhouse tests described below, for routine screening purposes the herbicide/antidote compositions were tested in crop/weed combinations involving corn as the crop and either or both of the weeds barnyardgrass (Echinochloa crusgalli), a monocotyledonous weed, and velvetleaf (Abutilon theophrasti), a dicotyledonous weed. In the tables below, these weeds are indicated by the symbols "BYG" and "VL", respectively.
This example describes experiments designed to test two generally efficacious antidotal compounds, i.e., Antidote Nos. 5 and 15, against the herbicidal action of the sulfonylurea compound, Herbicide No. 1, and the commercial herbicides EPTC (Herbicide No. 4) and ERADICANE® EXTRA (EPTC + R-29148, Antidote No. 5). Procedure II above was used in conducting these experiments. Formulations of EPTC and ERADICANE EXTRA were applied onto soil cover layers (to be applied over seed beds), followed by sequential pipetting of Herbicide No. 1 and Antidote No. 15. The soil was mixed to homogeneity and spread over the seed beds followed by 0.6 cm of overhead irrigation.

[2] = tested on: corn; test: Example 16, Procedure II: Herbicide No. 1 + EPTC (No. 4, EPTAM) with antidotes; format: in vivo
Protocol: as §1, §2, §3
The test procedure used in these experiments was that of Procedure II described above. The antidotes were applied to a soil cover layer by pipet after spraying the herbicides onto the soil, followed by incorporation and overhead irrigation. […]

[3] = tested on: corn; test: Example 26, field trials, preemergence surface application (PRE): corn growth reduction; format: in vivo
Protocol: In order to better understand and to confirm the results of greenhouse tests with herbicidal compositions comprising representative compounds according to Formula I and an antidote with and without a co-herbicide, a large number of field trials were conducted. This example provides a summary of those field trials.
The primary purpose of the field trials summarized herein was to ascertain the amount of corn injury caused by a compound according to Formula I. viz. Herbicide No. 1, with and without a co-herbicide of the α-chloroacetanilide class, viz., Herbicide Nos. 6 and 7, and the extent that any corn injury could be safened by a dichloroacetamide antidotal compound, viz., Antidote No. 15.
Corn injury is generally expressed, in broad terms, in stand reduction, growth reduction, malformed plants and other more specific effects. For purposes of the summary here, the results of a plurality of field trials are expressed in terms of growth reduction (GR), i.e., a significant reduction in plant height of the corn stand. A common criteria for commercially-acceptable corn injury is an amount equal to or less than 10% malformed plants or stand reduction and for present reporting purposes, no greater than about 15% growth reduction. The corn injury/safening described for these field trials refers to commercially-unacceptable to commercially-acceptable performance.
In the field trials from a wide distribution of trial locations, soil types (all having in excess of 2% organic matter), climatic effects, etc., the test chemicals were applied as tank mixes in various modes of application, i.e., pre-plant incorporation (PPI) and preemergence surface application (PRE). Test plots were small plots with three replications in a randomized complete block design. Observations were made and recorded in a period of from 31-50 days after treatment.

[4] = tested on: corn; test: Example 25, greenhouse post-emergence test: Antidote Nos. 1 and 2 against Herbicide Nos. 1-3; format: in vivo, Corn (Pioneer 3424 variety); conditions: for % Inhibition Corn: no herbicide; for inhibition at 0.25 g/ha / inhibition at 0.74 g/ha / inhibition at 2.5 g/ha / inhibition at 0.07 g/ha: Zea mays
Protocol: Additional tests were conducted in the greenhouse in order to evaluate the antidotal efficacy of Antidote Nos. 1 (dichlormid) and 2 (naphthalic anhydride) in protecting corn from the herbicidal activity of Herbicide Nos. 1-3 (i.e., NC-319, NC-319 EX and NC-311, respectively). The chemicals were tested in both preemergence and post-emergence modes of application. The herbicides were prepared and applied as wettable powders; dichlormid was applied as an emulsifiable concentrate, while the naphthalic anhydride was applied as a coating on the corn seed prior to planting.
Corn seeds (Pioneer 3424 variety) were planted in alluvial soil containing compost and fertilizer in pots 12 cm. in diameter. Test chemicals were applied with a spray gun at the spray volume rate of 11.2 l/ha at the time of seeding in the preemergence tests and seven (7) days after seeding in the post-emergence tests, when the check (control) plants were at the 16-20 cm., 3.0-3.2 leaf stage, and naphthalic anhydride coated seed grown plants were at the 14-16 cm., 2.8-3.0 leaf stage.
Test data from the preemergence tests are shown in Table 25A and from the post-emergence tests in Table 25B. In the tables, the concentration of chemicals is shown in terms of active ingredient in grams per hectare (G/ha); concentrations of the naphthalic anhydride were not measured per se, but were present as in conventional, normally-coated applications. Corn injury is shown in terms of percent inhibition of growth.

[5] = Herbicide No.1 0.56 kg/ha alone

**Q.** How did the “% Injury VL” value ([1]; Herbicide No.1 0.56 kg/ha + ERADICANE EXTRA 2.24 kg/ha) turn out when COC(=O)c1c(Cl)nn(C)c1S(=O)(=O)NC(=O)Nc1nc(OC)cc(OC)n1 [No.1] was run?
**A.** 95%

**Q.** What about the “% Injury VL” value ([1]; Herbicide No.1 0.56 kg/ha + ERADICANE EXTRA 4.48 kg/ha) of the same molecule?
**A.** 90%

**Q.** What about the “% Injury VL” value ([1]; Herbicide No.1 0.56 kg/ha + ERADICANE EXTRA 6.72 kg/ha) of the same molecule?
**A.** 100%

**Q.** And the “% Injury VL” value ([1]; Herbicide No.1 0.56 kg/ha + No. 4 2.24 kg/ha, no antidote)?
**A.** 95%

**Q.** What about the “% Injury VL” value ([1]; Herbicide No.1 0.56 kg/ha + No. 4 4.48 kg/ha, no antidote) of the same molecule?
**A.** 90%

**Q.** And the “% Injury VL” value ([1]; Herbicide No.1 0.56 kg/ha + No. 4 6.72 kg/ha, no antidote)?
**A.** 100%

**Q.** And the “% Injury VL” value [1, 5]?
**A.** 95%

**Q.** What about the “% Injury VL” value ([1]; Herbicide No.1 2.24 kg/ha + ERADICANE EXTRA 2.24 kg/ha) of the same molecule?
**A.** 100%

**Q.** And the “% Injury VL” value ([1]; Herbicide No.1 2.24 kg/ha + ERADICANE EXTRA 4.48 kg/ha)?
**A.** 100%

**Q.** What about the “% Injury VL” value ([1]; Herbicide No.1 2.24 kg/ha + ERADICANE EXTRA 6.72 kg/ha) of the same molecule?
**A.** 95%

**Q.** What about the “% Injury VL” value ([1]; Herbicide No.1 2.24 kg/ha + No. 4 2.24 kg/ha, no antidote) of the same molecule?
**A.** 95%

**Q.** And the “% Injury VL” value ([1]; Herbicide No.1 2.24 kg/ha + No. 4 4.48 kg/ha, no antidote)?
**A.** 95%

**Q.** And the “% Injury VL” value ([1]; Herbicide No.1 2.24 kg/ha + No. 4 6.72 kg/ha, no antidote)?
**A.** 100%

**Q.** What about the “% Injury VL” value ([1]; Herbicide No.1 2.24 kg/ha alone) of the same molecule?
**A.** 100%

**Q.** And the “% Injury Corn” value [2, 5]?
**A.** 10%

**Q.** And the “% Injury Corn” value ([2]; Herbicide No.1 1.12 kg/ha alone)?
**A.** 15%

**Q.** For CC1(C)OC(c2ccco2)CN1C(=O)C(Cl)Cl (centres unmarked) [compound 15], which “% Injury Corn” value ([2]; Herbicide No.1 1.12 kg/ha + EPTAM 6.72 kg/ha, antidote 2.24 kg/ha) is on record?
**A.** 5%

**Q.** Which results are given for CC1(C)OC(c2ccco2)CN1C(=O)C(Cl)Cl (centres unmarked) [Antidote No. 15, Oxazolidine, 3-(dichloroacetyl)-5-(2-furanyl)-2,2-dimethyl]?
**A.** % Injury VL ([1]; Herbicide No.1 0.56 kg/ha + No. 4 2.24 kg/ha, Antidote No. 15 0.18 kg/ha): 90%; % Injury VL ([1]; Herbicide No.1 0.56 kg/ha + No. 4 4.48 kg/ha, Antidote No. 15 0.35 kg/ha): 95%; % Injury VL ([1]; Herbicide No.1 0.56 kg/ha + No. 4 6.78 kg/ha, Antidote No. 15 0.56 kg/ha): 95%; % Injury VL ([1]; Herbicide No.1 2.24 kg/ha + No. 4 2.24 kg/ha, Antidote No. 15 0.18 kg/ha): 95%; % Injury VL ([1]; Herbicide No.1 2.24 kg/ha + No. 4 4.48 kg/ha, Antidote No. 15 0.35 kg/ha): 95%; % Injury VL ([1]; Herbicide No.1 2.24 kg/ha + No. 4 6.78 kg/ha, Antidote No. 15 0.56 kg/ha): 100%; crop injury, assessment in words ([3]; Antidote No. 15 to Herbicide No. 1 ratio increased to 3:1): reduced crop injury even further; corn growth reduction (GR) ([3]; Herbicide No. 1 0.07 kg/ha + acetochlor + Antidote No. 15): 8.7%; corn growth reduction (GR) ([3]; Herbicide No. 1 0.14 kg/ha + acetochlor + Antidote No. 15): 8.2%; corn growth reduction (GR) ([3]; Herbicide No. 1 0.28 kg/ha + acetochlor + Antidote No. 15): 14.5%

**Q.** For COC(=O)c1c(Cl)nn(C)c1S(=O)(=O)NC(=O)Nc1nc(OC)cc(OC)n1 [Herbicide No. 1], which “corn growth reduction (GR)” value ([3]; Herbicide No. 1 0.07 kg/ha + acetochlor, no antidote) is on record?
**A.** 9.8%

**Q.** And the “corn growth reduction (GR)” value ([3]; Herbicide No. 1 0.14 kg/ha + acetochlor, no antidote)?
**A.** 13.4%

**Q.** What about the “corn growth reduction (GR)” value ([3]; Herbicide No. 1 0.28 kg/ha + acetochlor, no antidote) of the same molecule?
**A.** 20.3%

**Q.** Which results are given for O=C1OC(=O)c2cccc3cccc1c23 [compound 2]?
**A.** % Inhibition Corn ([4]; Antidote alone as seed treatment (concentration not measured)): 14.5%; inhibition at 0.25 g/ha ([4]; Antidote as seed treatment (concentration not measured) with Herbicide No. 1 at 0.25 G/ha): 14.1%; inhibition at 0.74 g/ha ([4]; Antidote as seed treatment (concentration not measured) with Herbicide No. 1 at 0.74 G/ha): 27.3%; inhibition at 2.5 g/ha ([4]; Antidote as seed treatment (concentration not measured) with Herbicide No. 1 at 2.5 G/ha): 16.7%; inhibition at 0.25 g/ha ([4]; Antidote as seed treatment (concentration not measured) with Herbicide No. 2 at 0.25 G/ha): 8%; inhibition at 0.74 g/ha ([4]; Antidote as seed treatment (concentration not measured) with Herbicide No. 2 at 0.74 G/ha): 24.9%; inhibition at 2.5 g/ha ([4]; Antidote as seed treatment (concentration not measured) with Herbicide No. 2 at 2.5 G/ha): 19%; inhibition at 0.07 g/ha ([4]; Antidote as seed treatment (concentration not measured) with Herbicide No. 3 at 0.07 G/ha): 20.4%; inhibition at 0.25 g/ha ([4]; Antidote as seed treatment (concentration not measured) with Herbicide No. 3 at 0.25 G/ha): 33.7%; inhibition at 0.74 g/ha ([4]; Antidote as seed treatment (concentration not measured) with Herbicide No. 3 at 0.74 G/ha): 58.8%

**Q.** How did the “% Inhibition Corn” value ([4]; Antidote alone (rate printed as -)) turn out when C=CCN(CC=C)C(=O)C(Cl)Cl [compound 1] was run?
**A.** 1.4%

**Q.** And the inhibition at 0.25 g/ha ([4]; Antidote at 7.41 G/ha with Herbicide No. 1 at 0.25 G/ha)?
**A.** 16.1%

**Q.** And the inhibition at 0.74 g/ha ([4]; Antidote at 7.41 G/ha with Herbicide No. 1 at 0.74 G/ha)?
**A.** 16.3%

**Q.** And the inhibition at 2.5 g/ha ([4]; Antidote at 7.41 G/ha with Herbicide No. 1 at 2.5 G/ha)?
**A.** 22.4%

**Q.** What about the inhibition at 0.25 g/ha ([4]; Antidote at 7.41 G/ha with Herbicide No. 2 at 0.25 G/ha) of the same molecule?
**A.** 17.6%

**Q.** And the inhibition at 0.74 g/ha ([4]; Antidote at 7.41 G/ha with Herbicide No. 2 at 0.74 G/ha)?
**A.** 15.9%

**Q.** And the inhibition at 2.5 g/ha ([4]; Antidote at 7.41 G/ha with Herbicide No. 2 at 2.5 G/ha)?
**A.** 23.7%

**Q.** What about the inhibition at 0.07 g/ha ([4]; Antidote at 7.41 G/ha with Herbicide No. 3 at 0.07 G/ha) of the same molecule?
**A.** 39.8%

**Q.** What about the inhibition at 0.25 g/ha ([4]; Antidote at 7.41 G/ha with Herbicide No. 3 at 0.25 G/ha) of the same molecule?
**A.** 73.9%

**Q.** What about the inhibition at 0.74 g/ha ([4]; Antidote at 7.41 G/ha with Herbicide No. 3 at 0.74 G/ha) of the same molecule?
**A.** 73.1%
